Test results as given in US9949475B2, “Composition comprising active ingredient, oil and ionic liquid” (priority 2011, dated 2018).
≈ marks a conversion by molar mass, not a printed value. Where two headings read alike, the source gives them in different places.

Test: Solubility of agrochemical active ingredient in oil comprising ionic liquid
Format: physicochemical
Conditions: thermodynamic from solid, 21° C.
From the text: Alternatively, the oil, which comprised the ionic liquid, was saturated with the active ingredient and the soluble fraction of active ingredient was quantified by means of HPLC. In the first line of the tables, in each case the weight ratios of oil to IL are given.

`Cn1cc(C(=O)Nc2ccccc2-c2cc(F)c(F)c(F)c2)c(C(F)F)n1` [fluxapyroxad, 3-(difluoromethyl)-1-methyl-N-(3′,4′,5′-trifluorobiphenyl-2-yl)pyrazole-4-carboxamide] gave a solubility (Cetiol B oil comprising ionic liquid, 21 °C, oil or lipid, Oil/IL 60/40 weight ratio, IL N-butyl-N′-methylimidazolium dimethylphosphate, read-out: Solubility of fluxapyroxad with Cetiol ® B as oil) of 43.1 mg/mL, a solubility (Cetiol B oil comprising ionic liquid, 21 °C, oil or lipid, Oil/IL 60/40 weight ratio, IL N-ethyl-N′-ethylimidazolium propionate, read-out: Solubility of fluxapyroxad with Cetiol ® B as oil) of 50.8 mg/mL and a solubility (Cetiol B oil comprising ionic liquid, 21 °C, oil or lipid, Oil/IL 60/40 weight ratio, IL N-ethyl-N′-methylimidazolium acetate, read-out: Solubility of fluxapyroxad with Cetiol ® B as oil) of 54.9 mg/mL. It also gave a solubility (Cetiol B oil comprising ionic liquid, 21 °C, oil or lipid, Oil/IL 60/40 weight ratio, IL N-ethyl-N′-methylimidazolium dibutylphosphate, read-out: Solubility of fluxapyroxad with Cetiol ® B as oil) of 46 mg/mL, a solubility (Cetiol B oil comprising ionic liquid, 21 °C, oil or lipid, Oil/IL 60/40 weight ratio, IL N-ethyl-N′-methylimidazolium heptanoate, read-out: Solubility of fluxapyroxad with Cetiol ® B as oil) of 50 mg/mL and a solubility (Cetiol B oil comprising ionic liquid, 21 °C, oil or lipid, Oil/IL 60/40 weight ratio, IL N-ethyl-N′-methylimidazolium octanoate, read-out: Solubility of fluxapyroxad with Cetiol ® B as oil) of 49.5 mg/mL. The solubility (Cetiol B oil comprising ionic liquid, 21 °C, oil or lipid, Oil/IL 60/40 weight ratio, IL N-propyl-N′-propylimidazolium acetate, read-out: Solubility of fluxapyroxad with Cetiol ® B as oil) was 49.6 mg/mL, the solubility (Cetiol B oil comprising ionic liquid, 21 °C, oil or lipid, Oil/IL 60/40 weight ratio, IL Tetrabutylammonium [2-(2-methoxyethoxy)ethoxy]acetate, read-out: Solubility of fluxapyroxad with Cetiol ® B as oil) was 40.8 mg/mL and the solubility (Cetiol B oil comprising ionic liquid, 21 °C, oil or lipid, Oil/IL 80/20 weight ratio, IL Cholinium octanoate, read-out: Solubility of fluxapyroxad with Cetiol ® B as oil) was 20.8 mg/mL. The solubility (Cetiol B oil comprising ionic liquid, 21 °C, oil or lipid, Oil/IL 80/20 weight ratio, IL N-butyl-N′-methylimidazolium dimethylphosphate, read-out: Solubility of fluxapyroxad with Cetiol ® B as oil) was 29 mg/mL, the solubility (Cetiol B oil comprising ionic liquid, 21 °C, oil or lipid, Oil/IL 80/20 weight ratio, IL N-ethyl-N′-methylimidazolium dibutylphosphate, read-out: Solubility of fluxapyroxad with Cetiol ® B as oil) was 31.1 mg/mL and the solubility (Cetiol B oil comprising ionic liquid, 21 °C, oil or lipid, Oil/IL 80/20 weight ratio, IL N-ethyl-N′-methylimidazolium heptanoate, read-out: Solubility of fluxapyroxad with Cetiol ® B as oil) was 35.9 mg/mL. It also gave a solubility (Cetiol B oil comprising ionic liquid, 21 °C, oil or lipid, Oil/IL 80/20 weight ratio, IL N-ethyl-N′-methylimidazolium octanoate, read-out: Solubility of fluxapyroxad with Cetiol ® B as oil) of 34.3 mg/mL, a solubility (Cetiol B oil comprising ionic liquid, 21 °C, oil or lipid, Oil/IL 80/20 weight ratio, IL N-propyl-N′-propylimidazolium acetate, read-out: Solubility of fluxapyroxad with Cetiol ® B as oil) of 35.4 mg/mL and a solubility (Cetiol B oil comprising ionic liquid, 21 °C, oil or lipid, Oil/IL 80/20 weight ratio, IL Tetrabutylammonium [2-(2-methoxyethoxy)ethoxy]acetate, read-out: Solubility of fluxapyroxad with Cetiol ® B as oil) of 27.5 mg/mL. It also gave a solubility (Cetiol B oil comprising ionic liquid, 21 °C, oil or lipid, Oil/IL 90/10 weight ratio, IL N-butyl-N′-methylimidazolium acetate, read-out: Solubility of fluxapyroxad with Cetiol ® B as oil) of 23.7 mg/mL, a solubility (Cetiol B oil comprising ionic liquid, 21 °C, oil or lipid, Oil/IL 90/10 weight ratio, IL N-ethyl-N′-ethylimidazolium propionate, read-out: Solubility of fluxapyroxad with Cetiol ® B as oil) of 24.2 mg/mL and a solubility (Cetiol B oil comprising ionic liquid, 21 °C, oil or lipid, Oil/IL 90/10 weight ratio, IL N-ethyl-N′-methylimidazolium acetate, read-out: Solubility of fluxapyroxad with Cetiol ® B as oil) of 25.6 mg/mL. The solubility (Cetiol B oil comprising ionic liquid, 21 °C, oil or lipid, Oil/IL 90/10 weight ratio, IL Tetrabutylammonium [2-(2-methoxyethoxy)ethoxy]acetate, read-out: Solubility of fluxapyroxad with Cetiol ® B as oil) was 16 mg/mL, the solubility (Cetiol B oil without ionic liquid, 21 °C, oil or lipid, 100 Oil (Cetiol B, no IL), read-out: Solubility of fluxapyroxad with Cetiol ® B as oil) was 3 mg/mL (≈ 7.87 mM) and the solubility (neat Agnique AMD 12 (N,N-dimethyldodecanamide) oil, 21 °C, oil or lipid, 100 Oil (Agnique AMD 12, no IL), read-out: Solubility of fluxapyroxad with Agnique AMD 12 ® (N,N-dimethyldodecanamide, lauryl N,N-dimethylamide) as oil) was 21 mg/mL (≈ 55.1 mM). For the same compound, the solubility (neat N-butyl-N′-methylimidazolium acetate (ionic liquid), organic solvent or mixture, 100 IL (no oil), IL N-butyl-N′-methylimidazolium acetate, read-out: Solubility of fluxapyroxad with Agnique AMD 12 ® (N,N-dimethyldodecanamide, lauryl N,N-dimethylamide) as oil) was 1 mg/mL (≈ 2.62 mM), the solubility (neat N-ethyl-N′-ethylimidazolium propionate (ionic liquid), 21 °C, organic solvent or mixture, 100 IL (no oil), IL N-ethyl-N′-ethylimidazolium propionate, read-out: Solubility of fluxapyroxad with Solvesso ® 200 ND as oil) was 45.7 mg/mL (≈ 120 mM) and the solubility (neat N-ethyl-N′-methylimidazolium acetate (ionic liquid), organic solvent or mixture, 100 IL (no oil), IL N-ethyl-N′-methylimidazolium acetate, read-out: Solubility of fluxapyroxad with Agnique AMD 12 ® (N,N-dimethyldodecanamide, lauryl N,N-dimethylamide) as oil) was 1 mg/mL (≈ 2.62 mM). The solubility (neat Solvesso 200 ND (oil), 21 °C, oil or lipid, 100 Oil (Solvesso 200 ND, no IL), read-out: Solubility of fluxapyroxad with Solvesso ® 200 ND as oil) was 1.5 mg/mL (≈ 3.93 mM), the solubility (neat cholinium octanoate (ionic liquid), 21 °C, organic solvent or mixture, 100 IL (no oil), IL Cholinium octanoate, read-out: Solubility of fluxapyroxad with Cetiol ® B as oil) was 5 mg/mL (≈ 13.1 mM) and the solubility (neat ionic liquid (no oil), 21 °C, organic solvent or mixture, 100 IL (no oil), IL N-butyl-N′-methylimidazolium acetate, read-out: Solubility of fluxapyroxad with Cetiol ® B as oil) was 42.4 mg/mL (≈ 111 mM). The solubility (neat ionic liquid (no oil), 21 °C, organic solvent or mixture, 100 IL (no oil), IL N-butyl-N′-methylimidazolium dimethylphosphate, read-out: Solubility of fluxapyroxad with Cetiol ® B as oil) was 5 mg/mL (≈ 13.1 mM), the solubility (neat ionic liquid (no oil), 21 °C, organic solvent or mixture, 100 IL (no oil), IL N-ethyl-N′-ethylimidazolium propionate, read-out: Solubility of fluxapyroxad with Cetiol ® B as oil) was 45.7 mg/mL (≈ 120 mM) and the solubility (neat ionic liquid (no oil), 21 °C, organic solvent or mixture, 100 IL (no oil), IL N-ethyl-N′-methylimidazolium acetate, read-out: Solubility of fluxapyroxad with Cetiol ® B as oil) was 47.2 mg/mL (≈ 124 mM). For the same compound, the solubility (neat ionic liquid (no oil), 21 °C, organic solvent or mixture, 100 IL (no oil), IL N-ethyl-N′-methylimidazolium dibutylphosphate, read-out: Solubility of fluxapyroxad with Cetiol ® B as oil) was 9.5 mg/mL (≈ 24.9 mM), the solubility (neat ionic liquid (no oil), 21 °C, organic solvent or mixture, 100 IL (no oil), IL N-ethyl-N′-methylimidazolium heptanoate, read-out: Solubility of fluxapyroxad with Cetiol ® B as oil) was 26.9 mg/mL (≈ 70.5 mM) and the solubility (neat ionic liquid (no oil), 21 °C, organic solvent or mixture, 100 IL (no oil), IL N-ethyl-N′-methylimidazolium octanoate, read-out: Solubility of fluxapyroxad with Cetiol ® B as oil) was 20.8 mg/mL (≈ 54.5 mM). For the same compound, the solubility (neat ionic liquid (no oil), 21 °C, organic solvent or mixture, 100 IL (no oil), IL N-propyl-N′-propylimidazolium acetate, read-out: Solubility of fluxapyroxad with Cetiol ® B as oil) was 36.7 mg/mL (≈ 96.2 mM), the solubility (neat ionic liquid (no oil), 21 °C, organic solvent or mixture, 100 IL (no oil), IL Tetrabutylammonium [2-(2-methoxyethoxy)ethoxy]acetate, read-out: Solubility of fluxapyroxad with Cetiol ® B as oil) was 9.5 mg/mL (≈ 24.9 mM) and the solubility (neat ionic liquid (no oil), organic solvent or mixture, 100 IL (no oil), IL N-ethyl-N′-methylimidazolium isononanoate, read-out: Solubility of fluxapyroxad with Agnique AMD 12 ® (N,N-dimethyldodecanamide, lauryl N,N-dimethylamide) as oil) was 9.5 mg/mL (≈ 24.9 mM). The solubility (oil or lipid, Oil/IL 90/10 weight ratio, IL N-butyl-N′-methylimidazolium acetate, read-out: Solubility of fluxapyroxad with Agnique AMD 12 ® (N,N-dimethyldodecanamide, lauryl N,N-dimethylamide) as oil) was 36 mg/mL, the solubility (oil/ionic liquid mixture, oil or lipid, Oil/IL 90/10 weight ratio, IL N-ethyl-N′-methylimidazolium isononanoate, read-out: Solubility of fluxapyroxad with Agnique AMD 12 ® (N,N-dimethyldodecanamide, lauryl N,N-dimethylamide) as oil) was 32 mg/mL and the solubility (organic solvent or mixture, 100 IL (no oil), IL Tetrabutylammonium [2-(2-methoxyethoxy)ethoxy]acetate, read-out: Solubility of fluxapyroxad with Agnique AMD 12 ® (N,N-dimethyldodecanamide, lauryl N,N-dimethylamide) as oil) was 9.5 mg/mL (≈ 24.9 mM).
